Target: one or more of HDAC4, HDAC5, HDAC6, HDAC7, HDAC8, HDAC9 and HDAC11
Experiment: Inhibition of histone deacetylase enzymatic activity (fluorogenic Boc-Lys(Ac)-AMC / Boc-Lys(trifluoroacetyl)-AMC substrate)
Assay type: biochemical
Conditions: against one or more of HDAC4, HDAC5, HDAC6, HDAC7, HDAC8, HDAC9 and HDAC11
Protocol: Inhibition of HDAC-1,2,3,6 and 8
The following protocol is used to assay the compounds of the invention. In the assay, the buffer used is 25 mM HEPES, pH 8.0, 137 mM NaCl, 2.7 mM KCl, 1 mM MgCl2 and the substrate is Boc-Lys(Ac)-AMC in a 50 mM stock solution in DMSO. The enzyme stock solution is 4.08 μg/mL in buffer.
The compounds are pre-incubated (2 μl, in DMSO diluted to […] in buffer for transfer to assay plate) with enzyme (20 μL of 4.08 μg/mL) for 10 minutes at room temperature (35 μL pre-incubation volume). The mixture is pre-incubated for 5 minutes at room temperature. The reaction is started by bringing the temperature to 37° C. and adding 15 μL substrate. Total reaction volume is 50 μL. The reaction is stopped after 20 minutes by addition of 50 μL developer, prepared as directed by Biomol (FLUOR DE LYS™ developer, Cat. # KI-105). A plate is incubated in the dark for 10 minutes at room temperature before reading (λEx=360 nm, λEm=470 nm, Cutoff filter at 435 nm).
Inhibition of Class II HDAC and HDAC-11
A 30 mM stock of Boc-Lys(trifluoroacetyl)-AMC substrate is prepared in DMSO. 2 μL test compound in DMSO is diluted to 50 μL in buffer (25 mM HEPES, pH 8.0, 137 mM NaCl, 2.7 mM KCl, 1 mM MgCl2, 0.1% BSA) and pre-incubated with HDAC enzyme (30 μL of a final enzyme concentration of 0.1-0.2 nM) for 10 minutes at room temperature. Reaction is started by adding 18 μL Boc-Lys(trifluoroacetyl)-AMC substrate and incubating at 37° C. for 20-30 minutes. The reaction is stopped by adding 50 μL trypsin (1 mg/mL) and a known HDAC inhibitor. The plate is then incubated in the dark for 20 minutes at room temperature and read with Ex=360 nm, Em=470 nm, cutoff filter at 435 nm.

IC50 [nM] | Structure (SMILES)
< 250 | O=C(NO)c1sc(COc2ccccc2)cc1-c1ccccc1 [Compound 125, N-hydroxy-5-(phenoxymethyl)-3-phenylthiophene-2-carboxamide]
750 to 5000 | COc1cccc(-c2ccccc2C(=O)NO)c1 [Compound 19, N-hydroxy-3′-melhoxybipheny 1-2-carboxamide]
< 250 | O=C(NO)c1sc(C2CCN(Cc3ccncc3)CC2)nc1-c1ccccc1 [Compound 144, N-hydroxy-4-phenyl-2-(1-(pyridin-4-ylmethyl)piperidin-4-yl)thiazole-5-carboxamide]
< 250 | O=C(NO)c1sc(N2CCCCC2)nc1-c1ccccc1 [Compound 117, N-hydroxy-4-phenyl-2-(piperidin-1-yl)thiazole-5-carboxamide]
500 to 750 | O=C(NO)c1sc2ccc(NS(=O)(=O)c3ccccc3)cc2c1-c1ccccc1 [Compound 126, N-hydroxy-3-phenyl-5-(phenylsulfonamido) benzo[b] thiophene-2-carboxamide]
< 250 | O=C(NCc1ccccc1)OCc1cc(-c2ccccc2)c(C(=O)NO)s1 [Compound 180, (5-(hydroxycarbamoyl)-4-phenylthiophen-2-yl)methyl benzylcarbamate]
< 250 | O=C(NO)c1sc(-c2ccncc2)nc1-c1ccccc1 [Compound 122, N-hydroxy-4-phenyl-2-(pyridin-4-yl)thiazole-5-carboxamide]
< 250 | O=C(NO)c1sc(Cc2ccccc2)cc1-c1ccccc1 [Compound 130, 5-benzyl-N-hydroxy-3-phenylthiophene-2-carboxamide]
< 250 | O=C(NO)c1ccc(C2=Nc3ccccc3Oc3ccccc32)cc1-c1ccccc1 [Compound 104, (Z)-5-(dibenzo[b,f][1,4]oxazepin-11-yl)-N-hydroxybiphenyl-2-carboxamide]
250 to 500 | O=C(NO)c1cn(Cc2ccccc2)nc1-c1ccccc1 [Compound 106, 1-benzyl-N-hydroxy-3-phenyl 1H-pyrazole-4-carboxamide]
500 to 750 | O=C(NO)c1cn(-c2ccccc2)nc1-c1ccccc1 [Compound 32, N-hydroxy-1,3-diphenyl-1H-pyrazole-4-carboxamidc]
< 250 | O=C(NO)c1ccc(CN2C(=O)c3ccccc3Oc3ccccc32)cc1-c1ccccc1 [Compound 162, N-hydroxy-5-((11-oxodibenzo[b,f] [1,4]oxazepin-10(11H)-yl)methyl)biphenyl-2-carboxamide]

Structure (SMILES) | IC50 [nM]
O=C(NO)c1sc(C2CCN(CCc3c[nH]c4ccccc34)CC2)nc1-c1ccccc1 [Compound 152, 2-(1-(2-(1H-indol-3-yl)ethyl)piperidin-4-yl)-N-hydroxy-4-phenylthiazole-5-carboxamide] | < 250
